Assay results published in US9556154B2, “Pyrrole-substituted indolone derivative, preparation method therefor, composition comprising same and use thereof” (SHIJIAZHUANG YILING PHARMACEUTICAL CO., LTD., priority 2014, dated 2017).
Entries after “also recorded” stand apart in the source; their conditions may differ. Read-outs that look alike come from different tables or passages of the source.

How the values were obtained:
HUVEC [1] = assay: Inhibitory activity on VEGF-induced in vitro proliferation of HUVEC (MTS); assay type: cell-based; conditions: Homo sapiens, 72 h, read-out: EC50, activity on VEGF-induced in vitro proliferation of HUVEC
Method: Assays for inhibitory activity on VEGF-induced proliferation of Human umbilical veins […] cell (HUVEC) line: HUVECs were cultured in F-12K containing 10% FBS, 18 u/mL heparin and 30 µg/mL ECGS, and HUVECs at 4-8 passages were selected for the experiment. The cells were digested with pancreatin, re-suspended in culture media (1×10^5/mL), and were added to a 96-well plate with 100 μL/well, for overnight adherent culturing. The culture was replaced with an F-12K culture solution containing 5% FBS and the cells were cultured for 24 h. […] A 0.1% FBS F-12K culture solution containing VEGF165 at a final concentration of 30 ng/ml or the vehicle (DMSO) was added and the cells were cultured under induction for 72 h. The culture solution was removed by pipetting, and 120 μL MTS assay solution was added to each well, which was incubated at 37° C. The OD490 was read. The group treated with a 5% FBS F-12K culture solution served as the negative control. VEGF-stimulated growth value was obtained by subtracting the OD of the negative control group from the OD of the VEGF165-stimulated group, and used for calculation of inhibition. A dose-effect curve was drawn using the GraphPad Prism software, and half effective concentration (EC50) was calculated.

[2] = Cytotoxicity to HUVEC (MTS); assay type: cell-based, Human; conditions: human, HUVEC cells; 72 h
Method: (§1) Assays for cytotoxicity: the above HUVECs were cultured in an F-12K culture medium containing 10% fetal bovine serum (FBS), 100 U/mL penicillin, 100 µg/mL streptomycin, 30 ug/mL ECGS, and 18 u/mL heparin. The HUVECs growing in the exponential phase were digested with pancreatin, and was adjust to have an appropriate level of cell density by using an F-12K complete medium containing 5% FBS, then 150 μL cells were inoculated into a 96-well plate at 3000 cells/well. […] After the cells were further cultured for 72 h, 20 μL MTS and 1 μL PMS were added to each well. 1-2 hours later, OD490 was measured, with OD650 as a reference. A dose-effect curve was drawn using the GraphPad Prism software, and half cytotoxic concentration (CC50) was calculated. The therapeutic index (TI) of the test compound on HUVECs was calculated as TI=CC50/EC50.

HUVEC [3] = assay: Cytotoxicity to HUVEC (MTS); assay type: cell-based, Human; conditions: for TI = CC50/EC50: HUVEC; for Cytotoxicity to HUVEC compared with sunitinib: in words
Method: as §1

[4] = target: KDR (VEGF receptor) tyrosine kinase (Homo sapiens, UniProt P35968); assay: In vitro assay of biochemical activity on KDR tyrosine kinase (HTRF); conditions: read-out: In vitro inhibitory activity on KDR, IC50
Chain of KDR (VEGF receptor) tyrosine kinase (P35968 20-1356): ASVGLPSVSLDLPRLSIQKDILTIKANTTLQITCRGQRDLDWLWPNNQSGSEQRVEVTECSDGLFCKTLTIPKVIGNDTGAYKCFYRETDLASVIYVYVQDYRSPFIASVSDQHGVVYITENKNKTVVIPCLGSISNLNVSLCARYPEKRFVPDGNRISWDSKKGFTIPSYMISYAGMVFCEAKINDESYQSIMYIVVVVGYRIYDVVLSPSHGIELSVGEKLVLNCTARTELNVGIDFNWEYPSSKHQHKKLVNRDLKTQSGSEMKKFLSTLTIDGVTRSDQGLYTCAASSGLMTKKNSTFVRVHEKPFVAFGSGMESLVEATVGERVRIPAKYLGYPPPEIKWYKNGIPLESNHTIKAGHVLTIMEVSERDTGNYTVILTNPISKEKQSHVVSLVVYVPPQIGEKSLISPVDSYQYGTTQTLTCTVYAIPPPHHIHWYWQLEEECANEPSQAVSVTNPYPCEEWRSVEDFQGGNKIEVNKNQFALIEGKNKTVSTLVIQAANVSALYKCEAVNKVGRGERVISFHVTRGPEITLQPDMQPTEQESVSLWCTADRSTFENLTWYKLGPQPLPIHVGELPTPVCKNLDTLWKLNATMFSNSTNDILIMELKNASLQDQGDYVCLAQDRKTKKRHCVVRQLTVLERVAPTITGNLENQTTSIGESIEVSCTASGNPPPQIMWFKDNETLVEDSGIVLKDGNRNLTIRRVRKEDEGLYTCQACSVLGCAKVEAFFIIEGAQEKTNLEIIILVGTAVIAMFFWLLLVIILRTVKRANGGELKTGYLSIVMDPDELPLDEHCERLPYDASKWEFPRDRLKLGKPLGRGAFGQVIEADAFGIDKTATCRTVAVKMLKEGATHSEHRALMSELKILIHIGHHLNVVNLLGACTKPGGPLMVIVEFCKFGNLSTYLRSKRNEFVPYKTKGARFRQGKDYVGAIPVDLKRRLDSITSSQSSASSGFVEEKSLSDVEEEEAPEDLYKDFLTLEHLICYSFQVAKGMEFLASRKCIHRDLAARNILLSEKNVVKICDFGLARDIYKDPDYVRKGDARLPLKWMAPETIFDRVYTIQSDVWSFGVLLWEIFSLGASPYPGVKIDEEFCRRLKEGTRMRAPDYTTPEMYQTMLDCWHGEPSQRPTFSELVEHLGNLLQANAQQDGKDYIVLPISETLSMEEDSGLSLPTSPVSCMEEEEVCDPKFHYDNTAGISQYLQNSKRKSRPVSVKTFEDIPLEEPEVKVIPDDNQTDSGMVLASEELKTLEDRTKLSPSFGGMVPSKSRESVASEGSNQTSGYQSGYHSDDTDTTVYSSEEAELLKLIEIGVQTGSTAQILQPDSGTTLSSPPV
Method: In vitro inhibitory activity of the compounds on KDR (VEGF receptor) tyrosine kinase was assayed by the HTRF (homogeneous time-resolved fluorescence) method. […] 10 μl SA-XL665 and a TK antibody were added to each well, which was incubated at room temperature for 1 h and read with Synergy2.

MV-4-11 cell line = assay: Inhibitory activity on proliferation of human-derived MV-4-11 tumor cell line (MTS); assay type: cell-based; conditions: for IC50: Homo sapiens, MV4-11, 72 h, read-out: IC50, in vitro proliferation of MV-4-11 cell line; for Maximum inhibition: MV-4-11, 72 h
From the text: Human-derived acute leukemia cell line MV-4-11 is a cell line having mutation(s) in Flt-3.

[5] = test system: MV-4-11 transplanted tumor; assay: In vivo inhibition on MV-4-11 transplanted tumor in nude mice; design: species or system Balb/c nude mice; conditions: for BW (body weight) D0 / TV (tumor volume) D0: D0, 80 mg/kg intragastric once per day; for BW (body weight) D0 / BW (body weight) D21: in g (unit assumed); for TV (tumor volume) D0 / TV (tumor volume) D21: in mm³; for BW (body weight) D21 / TV (tumor volume) D21: D21, 80 mg/kg intragastric once per day
Method: MV-4-11 cells were cultured to proliferate in vitro, and the cells growing in the exponential phase were harvested and re-suspended in a serum-free EMEM culture medium. The cell suspension was subcutaneously injected by a syringe into the axillary cavity of the right forelimb of male Balb/c nude mice. The animals and growth of transplanted tumors were observed regularly. […] During the administration period, the diameter of tumors and body weight (BW) of animals were measured, and the living status of animals was monitored. The experiment was finished 3 weeks after administration, and the animals were sacrificed with CO2 and subjected to autopsy.

[6] = day 21, 80 mg/kg intragastric, in words

Row | IC50 [4] [nM] | IC50 (MV-4-11 cell line) [nM] | Compound | EC50 (HUVEC [1]; VEGF165 30 ng/ml) [nM] | CC50 at 72 h [2] [nM] | TI = CC50/EC50 (HUVEC [3]) | Cytotoxicity to HUVEC compared with sunitinib (HUVEC [3]) | Maximum inhibition (MV-4-11 cell line) [%] | EC50 (HUVEC [1]) [nM] | BW (body weight) D0 [5] | TV (tumor volume) D0 [5] | BW (body weight) D21 [5] | TV (tumor volume) D21 [5] | Impact on body weight of animals [5, 6] | Impact on body weight of animals ([5]; day 21, 80 mg/kg intragastric, in words, listed as sunitinib) | Effect on tumors [5, 6]
1 | 65 | 12.3 | Cc1[nH]c(/C=C2\C(=O)Nc3ccc(F)cc32)c(C)c1NC(=O)[C@@H]1CCCN1 [Compound 15] | 14.2 | 17700 | 1247 | considerably lower than that of sunitinib | 92.5 |  |  |  |  |  |  |  | 
2 |  | 3.94 | CCN(CC)CCNC(=O)c1c(C)[nH]c(/C=C2\C(=O)Nc3ccc(F)cc32)c1C [Sunitinib, reference compound] |  | 4140 |  |  | 94.4 | 7.73 | 19.47 ± 0.33 | 242.75 ± 20.58 | 16.02 ± 0.56 | 12.97 ± 2.47 | significantly reduces the body weight | significantly reduced | 
3 | 141 | 1.68 | Cc1[nH]c(/C=C2\C(=O)Nc3ccc(F)cc32)c(C)c1NC(=O)C1CCN(C)CC1 [Compound 5] | 18.4 | > 20000 | >1085 | considerably lower than that of sunitinib | 95.0 |  |  |  |  |  |  |  | 
4 | 290 | 4.7 | Cc1[nH]c(/C=C2\C(=O)Nc3ccc(F)cc32)c(C)c1NC(=O)C1CCNCC1 [Compound 2] | 16.1 | > 20000 | >1238 | considerably lower than that of sunitinib | 92.6 |  |  |  |  |  |  |  | 
5 | 83 | 11.6 | Cc1[nH]c(/C=C2\C(=O)Nc3ccc(F)cc32)c(C)c1NC(=O)[C@H]1CCCN1 [Compound 6] | 13.3 | 17600 | 1316 | considerably lower than that of sunitinib | 92.4 |  | 20.42 ± 0.20 | 238.25 ± 13.18 | 21.38 ± 0.37 | 0.00 ± 0.00 | no significant impact on the body weight; also recorded: little impact on the body weight |  | completely disappeared; also recorded: complete disappearance of tumors
6 | 78 | 10.7 | Cc1[nH]c(/C=C2\C(=O)Nc3ccc(F)cc32)c(C)c1NC(=O)C1CCN(C(=O)N(C)C)CC1 [Compound 3] | 13.7 | > 20000 | >1456 | considerably lower than that of sunitinib | 92.1 |  |  |  |  |  |  |  | 
7 | 89 | 5.34 | Cc1[nH]c(/C=C2\C(=O)Nc3ccc(F)cc32)c(C)c1NC(=O)C1CCCCN1 (stereo not shown) [Compound 9] |  |  |  |  | 94.3 |  |  |  |  |  |  |  | 
8 | 142 | 7.87 | Cc1[nH]c(/C=C2\C(=O)Nc3ccc(F)cc32)c(C)c1NC(=O)C1CCCNC1 (stereo not shown) [Compound 12] |  |  |  |  | 93.1 |  |  |  |  |  |  |  | 

Further lines, the molecule ahead of its results:

Row | Compound | IC50 [4] [nM] | IC50 (MV-4-11 cell line) [nM] | EC50 (HUVEC [1]; VEGF165 30 ng/ml) [nM] | CC50 at 72 h [2] [nM] | TI = CC50/EC50 (HUVEC [3]) | Cytotoxicity to HUVEC compared with sunitinib (HUVEC [3]) | Maximum inhibition (MV-4-11 cell line) [%] | EC50 (HUVEC [1]) [nM] | BW (body weight) D0 [5] | TV (tumor volume) D0 [5] | BW (body weight) D21 [5] | TV (tumor volume) D21 [5] | Impact on body weight of animals [5, 6] | Impact on body weight of animals ([5]; day 21, 80 mg/kg intragastric, in words, listed as sunitinib) | Effect on tumors [5, 6]
9 | Cc1[nH]c(/C=C2\C(=O)Nc3ccc(F)cc32)c(C)c1NC(=O)C1CCCN(C(=O)N2CCCC2)C1 (stereo not shown) [Compound 14] | 143 |  | 13 | > 20000 | >1534 | considerably lower than that of sunitinib |  |  |  |  |  |  |  |  | 
10 | Cc1[nH]c(/C=C2\C(=O)Nc3ccc(F)cc32)c(C)c1NC(=O)CC1CCNCC1 [Comparative compound 3, reference compound] |  |  | 14.6 | 8050 | 550 |  |  |  |  |  |  |  |  |  | 
11 | Cc1[nH]c(/C=C2\C(=O)Nc3ccc(F)cc32)c(C)c1NC(=O)[C@H]1CCCN1C(=O)N(C)C [Compound 8] | 66 |  | 11.3 | > 20000 | >1762 | considerably lower than that of sunitinib |  |  |  |  |  |  |  |  | 
12 | Cc1[nH]c(/C=C2\C(=O)Nc3ccc(F)cc32)c(C)c1NC(=O)C1CCN(C(=O)N2CCCC2)CC1 [Compound 11] | 74 |  | 13.9 | > 20000 | >1436 | considerably lower than that of sunitinib |  |  |  |  |  |  |  |  | 
13 | Cc1[nH]c(/C=C2\C(=O)Nc3ccc(F)cc32)c(C)c1NC(=O)N1CCCCC1 [Comparative compound 1, reference compound] |  |  | 13.2 | 5690 | 430 |  |  |  |  |  |  |  |  |  | 
14 | Cc1[nH]c(/C=C2\C(=O)Nc3ccc(F)cc32)c(C)c1NC(=O)C1CCCN(C(=O)N(C)C)C1 (stereo not shown) [Compound 13] | 77 | 6.41 |  |  |  | considerably lower than that of sunitinib | 90.2 |  |  |  |  |  |  |  | 
15 | Cc1[nH]c(/C=C2\C(=O)Nc3ccc(F)cc32)c(C)c1NC(=O)N1CCCC1 [Comparative compound 2, reference compound] |  |  | 12.3 | 6980 | 567 |  |  |  |  |  |  |  |  |  | 
